Reference: patent publication US20120157471A1, “BENZIMIDAZOLE DERIVATIVES” (PFIZER INC., priority 2009, published 2012)

Assays:
[1] = molecular target: T1, human Smo (amino acids 181-787) (Homo sapiens, UniProt Q99835); assay: Smo radioligand competition binding assay (displacement of 3H-PF-03451358 from HEK293 membranes); settings: for inhibition at 0.05 µM: read-out: SMO % inh. @ 0.05 μM; for IC50: radioligand competition binding
T1 construct: expressed in transfected cells; membrane preparation
How it was run: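 Membranes (40 μg protein/well) from HEK293 expressing murine Igk-leader-fused Smo 181-787 incubated 2 h at room temperature with 3 nM 3H-PF-03451358 in Tris pH 7.5/NaCl/MgCl2/EDTA/BSA buffer; filter-bound counts by scintillation. Nonspecific binding with 30 μM cold PF-03451358; IC50 from four-parameter fit of % inhibition.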

[2] = tested on: Gli-Luc/MEF cells (Smo); assay: Gli-Luc/MEF assay (Shh-stimulated luciferase reporter under the Gli response element); assay type: cell-based, mouse
How it was run: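 Mouse Gli-Luc/MEF cells dosed with compound (3-fold series, […]) plus 2 μg/mL recombinant mouse Shh, then incubated 48 h at 37° C, 5% CO2. Bright-Glo luminescence read; IC50 calculated from inhibition of Shh-stimulated luciferase.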

[3] = 0.05 μM test compound, displacement of 3H-PF-03451358

T1 sequence (Q99835 181-787): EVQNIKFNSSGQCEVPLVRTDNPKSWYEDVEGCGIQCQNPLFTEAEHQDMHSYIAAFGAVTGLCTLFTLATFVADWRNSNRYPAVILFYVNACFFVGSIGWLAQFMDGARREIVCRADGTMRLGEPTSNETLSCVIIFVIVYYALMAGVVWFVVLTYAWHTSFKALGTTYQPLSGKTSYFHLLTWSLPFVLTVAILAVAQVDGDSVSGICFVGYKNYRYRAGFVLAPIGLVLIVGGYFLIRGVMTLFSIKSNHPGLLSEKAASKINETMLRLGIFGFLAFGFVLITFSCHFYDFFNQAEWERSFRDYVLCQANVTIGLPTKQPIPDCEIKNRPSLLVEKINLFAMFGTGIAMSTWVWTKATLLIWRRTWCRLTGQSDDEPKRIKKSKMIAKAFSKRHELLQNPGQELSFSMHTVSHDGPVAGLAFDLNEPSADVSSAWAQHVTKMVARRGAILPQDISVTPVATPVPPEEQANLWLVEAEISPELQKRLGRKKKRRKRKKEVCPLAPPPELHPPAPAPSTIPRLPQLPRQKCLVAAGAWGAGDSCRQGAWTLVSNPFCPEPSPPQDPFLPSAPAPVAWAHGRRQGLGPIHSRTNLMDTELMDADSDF

Structure (SMILES) | inhibition at 0.05 µM [1, 3] | IC50 [1] | IC50 ([2]; Mus musculus, MEF, 48 h) | SMO % inh. @ 0.05 μM ([1]; 0.05 μM test compound, displacement of 3H-PF-03451358, 0.05 µM) | IC50 ([2]; 48 hours)
C[C@@H]1CN(c2cc(-c3nc4ccccc4n3C)c(Cl)cn2)CCN1S(C)(=O)=O [Example A-158, 2-{5-chloro-2-[(3R)-3-methyl-4-(methylsulfonyl)piperazin-1-yl]pyridin-4-yl}-1-methyl-1H-benzimidazole] | 99% | 0.009 µM | 0.002 µM | – | –
CC(=O)N1CCCN(c2cc(-c3nc4ccccc4n3C)ccn2)CC1 [Example A-154, 2-[2-(4-acetyl-1,4-diazepan-1-yl)pyridin-4-yl]-1-methyl-1H-benzimidazole] | 90% | 0.033 µM | 0.02 µM | – | –
CN(C1CCN(c2cc(-c3nc4ccccc4n3C)c(Cl)cn2)CC1)S(C)(=O)=O [Example A-6, N-{1-[5-chloro-4-(1-methyl-1H-benzimidazol-2-yl)pyridin-2-yl]piperidin-4-yl}-N-methylmethanesulfonamide] | 96% | – | 0.003 µM | – | –
Cn1c(-c2cc(N3[C@@H]4CC[C@H]3C[C@@H](NS(C)(=O)=O)C4)ncc2Cl)nc2ccccc21 [Example A-193, N-{(3-endo)-8-[5-chloro-4-(1-methyl-1H-benzimidazol-2-yl)pyridin-2-yl]-8-azabicyclo[3.2.1]oct-3-yl}methanesulfonamide] | 103% | 0.013 µM | 0.0025 µM | – | –
Cn1c(-c2cc(N3CCC(CS(N)(=O)=O)CC3)ncc2Cl)nc2ccccc21 [Example A-65, 1-{1-[5-chloro-4-(1-methyl-1H-benzimidazol-2-yl)pyridin-2-yl]piperidin-4-yl}methanesulfonamide] | 95% | 0.006 µM | 0.002 µM | – | –
CNC(=O)N1CCN(c2nccc(-c3nc4ccccc4n3C)n2)CC1 [Example C-8, N-Methyl-4-[4-(1-methyl-1H-benzimidazol-2-yl)pyrimidin-2-yl]piperazine-1-carboxamide] | 54% | 0.538 µM | 0.408 µM | – | –
Cn1c(-c2cc(N3CC[C@@H](O)C3)ncc2Cl)nc2ccccc21 [Example A-26, (3R)-1-[5-chloro-4-(1-methyl-1H-benzimidazol-2-yl)pyridin-2-yl]pyrrolidin-3-ol] | 64% | 0.166 µM | 0.049 µM | – | –
CN(C1CCN(c2cc(-c3nc4ccccc4n3C)c(F)cn2)CC1)S(C)(=O)=O [Example D-10, N-{1-[5-fluoro-4-(1-methyl-1H-benzimidazol-2-yl)pyridin-2-yl]piperidin-4-yl}-N-methylmethanesulfonamlde] | 102% | 0.007 µM | 0.004 µM | – | –
Cn1c(-c2cc(N3CCC(C(=O)NCCO)CC3)ncc2Cl)nc2ccccc21 [Example A-74, 1-[5-chloro-4-(1-methyl-1H-benzimidazol-2-yl)pyridin-2-yl]-N-(2-hydroxyethyl)piperidine-4-carboxamide] | 93% | 0.027 µM | 0.011 µM | – | –
Cn1c(-c2cc(N3CCC(O)CC3)ncc2Cl)nc2cccnc21 [Example A-169, 1-[5-chloro-4-(3-methyl-3H-imidazo[4,5-b]pyridin-2-yl)pyridin-2-yl]piperidin-4-ol] | 76% | 0.219 µM | 0.138 µM | – | –
CC(=O)N1CCN(c2cc(-c3nc4ccccc4n3C)ccn2)CC1 [Example A-29, 2-[2-(4-acetylpiperazin-1-yl)pyridin-4-yl]-1-methyl-1H-benzimidazole] | 78% | 0.061 µM | 0.11 µM | – | –
Cc1cnc(N2CCC(S(C)(=O)=O)CC2)cc1-c1nc2ccccc2n1C [Example E-5, 1-methyl-2-{5-methyl-2-[4-(methylsulfonyl)piperidin-1-yl]pyridin-4-yl)-1H-benzimidazole] | 89% | 0.059 µM | 0.0589 µM | – | –
Cn1c(-c2cc(N3CCC(S(C)(=O)=O)CC3)ncc2Cl)nc2ccccc21 [Example A-20, 2-{5-chloro-2-[4-(methylsulfonyl)piperidin-1-yl]pyridin-4-yl}-1-methyl-1H-benzimidazole] | 87% | 0.019 µM | 0.008 µM | – | –
COCCc1[nH]nc2c1CN(c1cc(-c3nc4ccccc4n3C)c(Cl)cn1)CC2 [Example A-99, 5-[5-chloro-4-(1-methyl-1H-benzimidazol-2-yl)pyridin-2-yl]-3-(2-methoxyethyl)-4,5,6,7-tetrahydro-1H-pyrazolo[4,3-c]pyridine] | 84% | 0.084 µM | 0.028 µM | – | –
CC(=O)NC1CCN(c2cc(-c3nc4ccccc4n3C)c(Cl)cn2)CC1 [Example A-22, N-{1-[5-chloro-4-(1-methyl-1H-benzimidazol-2-yl)pyridin-2-yl]piperidin-4-yl}acetamide] | 94% | 0.011 µM | 0.006 µM | – | –
Cn1c(-c2cc(N3CCC(C#N)CC3)ncc2Cl)nc2ccccc21 [Example A-75, 1-[5-chloro-4-(1-methyl-1H-benzimidazol-2-yl)pyridin-2-yl]piperidine-4-carbonitrile] | 92% | 0.023 µM | 0.011 µM | – | –
Cn1c(-c2cc(N3C[C@@H](O)[C@@H](O)C3)ncc2Cl)nc2ccccc21 [Example A-129, (3R,4S)-1-[5-chloro-4-(1-methyl-1H-benzimidazol-2-yl)pyridin-2-yl]pyrrolidine-3,4-diol] | 53% | – | 0.105 µM | – | –
Cn1c(-c2cc(N3CCC(N4CCNC(=O)C4=O)CC3)ncc2Cl)nc2ccccc21 [Example A-98, 1-{1-[5-chloro-4-(1-methyl-1H-benzimidazol-2-yl)pyridin-2-yl]piperidin-4-yl}piperazine-2,3-dione] | 85% | 0.122 µM | 0.066 µM | – | –
CN1CC2(CCN(c3cc(-c4nc5ccccc5n4C)c(Cl)cn3)CC2)OC1=O [Example A-197, 8-[5-chloro-4-(1-methyl-1H-benzimidazol-2-yl)pyridin-2-yl]-3-methyl-1-oxa-3,8-diazaspiro[4.5]decan-2-one] | 96% | 0.01 µM | 0.0069 µM | – | –
Cn1c(-c2cc(N3C[C@H]4CC[C@@H](C3)N4)ncc2Cl)nc2ccccc21 [Example A-185, 2-{5-chloro-2-[(1R,5S)-3,8-diazabicyclo[3.2.1]oct-3-yl]pyridin-4-yl}-1-methyl-1H-benzimidazole] | 91% | 0.02 µM | 0.014 µM | – | –
Cn1c(-c2cc(N3CCC(O)CC3)ncc2Cl)nc2ccccc21 [Example A-25, 1-[5-chloro-4-(1-methyl-1H-benzimidazol-2-yl)pyridin-2-yl]piperidin-4-ol] | 91% | 0.008 µM | 0.007 µM | – | –
Cn1c(-c2ccnc(N3CCC(NS(C)(=O)=O)CC3)n2)nc2ccccc21 [Example C-10, N-{1-[4-(1-methyl-1H-benzimidazol-2-yl)pyrimidin-2-yl]piperidin-4-yl}methanesulfonamide] | 97% | 0.044 µM | 0.057 µM | – | –
CCNC(=O)N1CCN(c2cc(-c3nc4ccccc4n3C)c(F)cn2)CC1 [Example D-3, N-ethyl-4-[5-fluoro-4-(1-methyl-1H-benzimidazol-2-yl)pyridin-2-yl]piperazine-1-carboxamide] | 98% | 0.008 µM | 0.01 µM | – | –
COC(=O)N1CCN(c2cc(-c3nc4ccccc4n3C)ccn2)CC1 [Example A-141, methyl 4-[4-(1-methyl-1H-benzimidazol-2-yl)pyridin-2-yl]piperazine-1-carboxylate] | 96% | 0.034 µM | 0.027 µM | – | –
COC(=O)NC1CCN(c2cc(-c3nc4ccccc4n3C)ccn2)CC1 [Example A-19, methyl {1-[4-(1-methyl-1H-benzimidazol-2-yl)pyridin-2-yl]piperidin-4-yl}carbamate] | 84% | 0.025 µM | 0.015 µM | – | –
Cn1c(-c2cc(N3CCc4nnc(C5CC5)n4CC3)ncc2Cl)nc2ccccc21 [Example A-68, 7-[5-chloro-4-(1-methyl-1H-benzimidazol-2-yl)pyridin-2-yl]-3-cyclopropyl-6,7,8,9-tetrahydro-5H-[1,2,4]triazolo[4,3-d][1,4]diazepine] | 94% | 0.021 µM | 0.02 µM | – | –
Cn1c(-c2cc(N3CC[C@H](O)C3)ncc2Cl)nc2ccccc21 [Example A-28, (3S)-1-[5-chloro-4-(1-methyl-1H-benzimidazol-2-yl)pyridin-2-yl]pyrrolidin-3-ol] | 82% | 0.079 µM | 0.052 µM | – | –
CN(C)CC(=O)N1CCN(c2cc(-c3nc4ccccc4n3C)c(Cl)cn2)CC1 [Example A-192, 2-{4-[5-chloro-4-(1-methyl-1H-benzimidazol-2-yl)pyridin-2-yl]piperazin-1-yl}-N,N-dimethyl-2-oxoethanamine] | 87% | 0.015 µM | 0.0024 µM | – | –
Cn1c(-c2cc(N3CCC(C(=O)NC4CCOC4)CC3)ncc2Cl)nc2ccccc21 (stereo not shown) [Example A-208, 1-[5-chloro-4-(1-methyl-1H-benzimidazol-2-yl)pyridin-2-yl]-N-(tetrahydrofuran-3-yl)piperidine-4-carboxamide] | 102% | 0.023 µM | 0.0181 µM | – | –
Cn1c(-c2cc(N3CCN(CCS(C)(=O)=O)CC3)ncc2Cl)nc2ccccc21 [Example A-61, 2-(5-chloro-2-{4-[2-(methylsulfonyl)ethyl]piperazin-1-yl}pyridin-4-yl)-1-methyl-1H-benzimidazole] | – | 0.018 µM | – | 96% | 0.073 µM
